What all share (format): cell-based
Common to all, as to settings: 72 h, ± standard error, read-out: Growth Inhibition Concentration, GI50

Assay [1] has as its system HT29 (colon) cancer cells. Description: MTT growth inhibition assay, HT29. The method, then:
(§1) The Schiff bases and their organotin(IV) compounds were screened for in vitro cytotoxicity against a panel of 12 cancer cell lines: EJ-28 (muscle invasive bladder), RT-112 (minimum-invasive bladder), HT29 (colon), U87 and SJ-G2 (glioblastoma), MCF-7 (breast), A2780 (ovarian), H460 (lung), A431 (skin), DU145 (prostate), BE2-C (neuroblastoma), MIA (pancreatic) and one normal breast cell line (MCF-10A) using the MTT metabolic assay (Figure 6). After 72 h of incubation, a dose-dependent […] effect towards the cancer cell lines was measured at very low micromolar (µM) concentrations of the compounds. The growth inhibition concentration of the Schiff bases and their organotin(IV) compounds required to inhibit 50% cell proliferation relative to the cells that were treated with DMSO (control) are given in Table 2. The stability of these compounds was assessed in DMSO as well as in a mixture of DMSO-H2O. The absorbance obtained from UV-vis spectroscopy analysis was monitored for 72 h, and an unchanged pattern in the spectra was indicative that the compounds were stable in both the solvent systems tested.
(§2) For HT29 (colon), U87 and SJ-G2 (glioblastoma), MCF-7 (breast), A2780 (ovarian), H460 (lung), A431 (skin), Du145 (prostate), BE2-C (neuroblastoma), MIA (pancreas) cell lines and one normal breast cell line, MCF-10A (normal breast), the MTT assays were performed using the following method:
(§3) Stock solutions were prepared as follows and stored at −20 °C: Trial compounds were stored as 10 mM solutions in DMSO. All cell lines were cultured in a humidified atmosphere 5% CO2 at 37 °C. The cancer cell lines were maintained in Dulbecco’s modified Eagle’s medium (DMEM) (Trace Biosciences) supplemented with 10% foetal bovine serum, 10 mM sodium bicarbonate, penicillin (100 IU/mL), streptomycin (100 μg/mL) and glutamine (4 mM). The normal cell line, MCF-10A was cultured in DMEM:F12 (1:1) cell culture media, 5% heat inactivated horse serum, supplemented with penicillin (50 IU/mL), streptomycin (50 μg/mL), 20mM Hepes, L-glutamine (2 mM), epidermal growth factor (20 ng/mL), hydrocortisone (500 ng/mL), cholera toxin (100 ng/mL) and insulin (10 μg/mL).
(§4) Cells in logarithmic growth were transferred to 96-well plates. Cytotoxicity was determined by plating cells in duplicate in 100 μL medium at a density of 2500–4000 cells/well. On day 0 (24 h after plating), when the cells were in logarithmic growth, 100 μL medium, with or without the test agent, was added to each well. After 72 h drug exposure, growth inhibitory effects were evaluated using the MTT (3-[4,5-dimethylthiazol-2-yl]-2,5-diphenyltetrazolium bromide) assay and absorbance read at 540 nm. Percentage growth inhibition was determined at a fixed drug concentration of 25 μM. A value of 100% was indicative of complete cell growth inhibition. Those analogues showing appreciable percentage growth inhibition underwent further dose-response analysis allowing for the calculation of a GI50 value. This value is the drug concentration at which cell growth is 50% inhibited based on the difference between the optical density values on day 0 and those at the end of drug exposure.

Assay [2] concerns U87 (glioblastoma) cancer cells. Description: MTT growth inhibition assay, U87. The method, then:
as §1, §2, §3, §4
(Formazan colour is commonly taken as a measure of viable cells.)

Assay [3] relates to H460 (lung) cancer cells. Description: MTT growth inhibition assay, H460. The method, then:
as §1, §2, §3, §4

The test system of assay [4] is A431 (skin) cancer cells. Kind of assay: MTT growth inhibition assay, A431. The method, then: as §1, §2, §3, §4

Take “Diphenyltin(IV) [Ph2Sn(S2MoVa), Diphenyltin(IV) [S-2-Methybenzyl-β-N-(2-hydroxy-3-methoxybenzylmethylene) dithiocarbazate]]”: the GI50 turned out to be 1800 ± 130 nM in assay [1], 4400 ± 1700 nM in assay [2], 2800 nM in assay [3] and 2100 ± 90 nM in assay [4].

Take “Diphenyltin(IV) [Ph2Sn(S4MoVa), Diphenyltin(IV) [S-4-Methybenzyl-β-N-(2-hydroxy-3-methoxybenzylmethylene) dithiocarbazate]]”: the GI50 in assay [1] came out at 870 ± 220 nM; in assay [2], 1300 ± 400 nM; in assay [3], 1900 ± 230 nM; in assay [4], 1400 ± 380 nM.

The values above are taken from paper PMC6413231, “o-Vanillin Derived Schiff Bases and Their Organotin(IV) Compounds: Synthesis, Structural Characterisation, In-Silico Studies and Cytotoxicity” (International Journal of Molecular Sciences, 2019).
